## O=C(Nc1ccc(Oc2ccnc3c2CCN3)c(F)c1)c1c[nH]cc(-c2ccc(F)cc2)c1=O
400 mg BID (n=4)
  TRAE Urinary retention, any grade: 0 n (%)
  TRAE Urinary retention, grade 3-4: 0 n (%)
  TRAE Urinary tract infection, any grade: 0 n (%)
  TRAE Urinary tract infection, grade 3-4: 0 n (%)
  TRAE Ventricular arrhythmia, any grade: 0 n (%)
  TRAE Ventricular arrhythmia, grade 3-4: 0 n (%)
  TRAE Ventricular extrasystoles, any grade: 0 n (%)
  TRAE Ventricular extrasystoles, grade 3-4: 0 n (%)
  TRAE Vomiting, any grade: 1 (25.0) n (%)
  TRAE Vomiting, grade 3-4: 0 n (%)
  TRAE Weight loss, any grade: 0 n (%)
  TRAE Weight loss, grade 3-4: 0 n (%)
450 mg QD (n=12)
  TRAE Accessory nerve disorder, any grade: 0 n (%)
  TRAE Accessory nerve disorder, grade 3-4: 0 n (%)
  TRAE Activated partial thromboplastin time prolonged, any grade: 1 (8.3) n (%)
  TRAE Activated partial thromboplastin time prolonged, grade 3-4: 0 n (%)
  TRAE Anaemia, any grade: 1 (8.3) n (%)
  TRAE Anaemia, grade 3-4: 1 (8.3) n (%)
  TRAE Anaesthesia oral, any grade: 0 n (%)
  TRAE Anaesthesia oral, grade 3-4: 0 n (%)
  TRAE Arrhythmia, any grade: 0 n (%)
  TRAE Arrhythmia, grade 3-4: 0 n (%)
  TRAE Arthralgia, any grade: 1 (8.3) n (%)
  TRAE Arthralgia, grade 3-4: 0 n (%)
  TRAE Asthenia, any grade: 2 (16.7) n (%)
  TRAE Asthenia, grade 3-4: 0 n (%)
  TRAE Blister, any grade: 1 (8.3) n (%)
  TRAE Blister, grade 3-4: 0 n (%)
  TRAE Chest discomfort, any grade: 0 n (%)
  TRAE Chest discomfort, grade 3-4: 0 n (%)
  TRAE Chronic kidney disease, any grade: 1 (8.3) n (%)
  TRAE Chronic kidney disease, grade 3-4: 0 n (%)
  TRAE Constipation, any grade: 5 (41.7) n (%)
  TRAE Constipation, grade 3-4: 0 n (%)
  TRAE Cough, any grade: 0 n (%)
  TRAE Cough, grade 3-4: 0 n (%)
  TRAE Decreased Ccr, any grade: 2 (16.7) n (%)
  TRAE Decreased Ccr, grade 3-4: 0 n (%)
  TRAE Decreased appetite, any grade: 2 (16.7) n (%)
  TRAE Decreased appetite, grade 3-4: 0 n (%)
  TRAE Diarrhoea, any grade: 1 (8.3) n (%)
  TRAE Diarrhoea, grade 3-4: 0 n (%)
  TRAE Dizziness, any grade: 0 n (%)
  TRAE Dizziness, grade 3-4: 0 n (%)
  TRAE Dry mouth, any grade: 2 (16.7) n (%)
  TRAE Dry mouth, grade 3-4: 0 n (%)
  TRAE Dysgeusia, any grade: 3 (25.0) n (%)
  TRAE Dysgeusia, grade 3-4: 0 n (%)
  TRAE Dyskinesia, any grade: 0 n (%)
  TRAE Dyskinesia, grade 3-4: 0 n (%)
  TRAE Dysphonia, any grade: 0 n (%)
  TRAE Dysphonia, grade 3-4: 0 n (%)
  TRAE Dyspnoea, any grade: 0 n (%)
  TRAE Dyspnoea, grade 3-4: 0 n (%)
  TRAE Electrocardiogram QT prolonged, any grade: 0 n (%)
  TRAE Electrocardiogram QT prolonged, grade 3-4: 0 n (%)
  TRAE Elevated ALT, any grade: 5 (41.7) n (%)
  TRAE Elevated ALT, grade 3-4: 0 n (%)
  TRAE Elevated AST, any grade: 5 (41.7) n (%)
  TRAE Elevated AST, grade 3-4: 0 n (%)
  TRAE Elevated D dimer, any grade: 0 n (%)
  TRAE Elevated D dimer, grade 3-4: 0 n (%)
  TRAE Elevated GGT, any grade: 0 n (%)
  TRAE Elevated GGT, grade 3-4: 0 n (%)
  TRAE Elevated LDH, any grade: 0 n (%)
  TRAE Elevated LDH, grade 3-4: 0 n (%)
  TRAE Elevated alpha-HBDH, any grade: 0 n (%)
  TRAE Elevated alpha-HBDH, grade 3-4: 0 n (%)
  TRAE Elevated bilirubin, any grade: 0 n (%)
  TRAE Elevated bilirubin, grade 3-4: 0 n (%)
  TRAE Elevated blood creatinine, any grade: 2 (16.7) n (%)
  TRAE Elevated blood creatinine, grade 3-4: 0 n (%)
  TRAE Elevated creatine phosphokinase, any grade: 1 (8.3) n (%)
  TRAE Elevated creatine phosphokinase, grade 3-4: 0 n (%)
  TRAE Elevated serum urea, any grade: 0 n (%)
  TRAE Elevated serum urea, grade 3-4: 0 n (%)
  TRAE Elevated troponin, any grade: 1 (8.3) n (%)
  TRAE Elevated troponin, grade 3-4: 0 n (%)
  TRAE Genital rash, any grade: 0 n (%)
  TRAE Genital rash, grade 3-4: 0 n (%)
  TRAE Haematuria, any grade: 3 (25.0) n (%)
  TRAE Haematuria, grade 3-4: 0 n (%)
  TRAE Headache, any grade: 0 n (%)
  TRAE Headache, grade 3-4: 0 n (%)
  TRAE Hyperhidrosis, any grade: 1 (8.3) n (%)

Reference: PMC10088252
